According to a melting point compilation (Tetko et al.; mined from patent text by program, amines drawn as free bases though some values may be those of a salt):

SMILES	melting point
O=C(C1CCCCO1)N1CCNCC1 (stereo unspecified)	53 to 58 °C
Clc1cc(C(Cl)(Cl)Cl)nc(C(Cl)(Cl)Cl)c1	101 to 102 °C
Cn1c2ccncc2c(=O)n2nccc12	> 300 °C
Cn1nc(C(F)(F)F)c(CS(=O)(=O)C2=NOC(C)(C)C2)c1C#N	105 to 108 °C
O=C1C(=Cc2ccc(F)cc2)C2C=CC1CC2 (stereo unspecified)	85 to 86 °C
O=C(O)c1cc(C(F)(F)F)ccc1I	171 to 172 °C
O=c1oc(-c2ccccc2)cc(O)c1Sc1ccccc1Cl	275 to 280 °C
CCn1nnnc1C(CO)=C(c1ccc(F)cc1)c1ccc(F)cc1	103 to 111 °C
C[C@@H]1C[C@@H]([C@H](CC2CCCCC2)NC(=O)[C@H](Cc2cscn2)NC(=O)OC(C)(C)C)OC1=O	118 to 120 °C
CN(C)C=C1N=C(c2ccccc2Cl)c2cc(I)ccc2N(C)C1=O	182 to 184 °C
COc1cc(Br)c(O)c([N+](=O)[O-])c1	116 to 118 °C
O=C(O)Cc1cn(CCc2ccc(OCc3ccccc3)cc2)nc1-c1ccccc1	199 to 200 °C
NCCOc1nc2ccccc2n1C1CCN(C2(c3ccccc3)CCCCCC2)CC1	180 to 184 °C
CCCn1cnc2c1c(=O)n(CCCC(C)(C)O)c(=O)n2C	96 to 98 °C
O=S(=O)(NC1CCN(C2CCCCC2)CC1)c1ccc(Nc2ccnc3cc(Cl)ccc23)cc1	192 to 193 °C
O=c1oc(-c2ccc3c(c2)OCCO3)cc(O)c1C(CC1CC1)SC1CCCC1 (stereo unspecified)	80 to 82 °C
Fc1cc(C(c2cccc(Cl)c2)n2cncn2)c2ccccc2n1 (stereo unspecified)	140 °C
O=C(CCCCCCCCCCN1CCN(c2ccccc2)CC1)Nc1ccc(O)cc1	160 to 162 °C
O=C(NCCCCCn1cncn1)c1ccc(Cl)cc1	68 to 70 °C
CS(=O)(=O)NC1CCN(c2nc(N)nc(-c3cc(Cl)ccc3Cl)n2)C1 (stereo unspecified)	102 to 107 °C
C=Cn1cc(C(=O)O)c(=O)c2cc(F)c(N3CCN(C(=O)OCC)CC3)nc21	246 to 248 °C
O=S(=O)(NCCCCOc1ccc(-c2cc[nH]n2)cc1)c1ccc(Br)cc1	157 to 158 °C
O=C(O)C[C@H]1CCCC[C@H]1n1nc(-c2c(-c3ccccc3)nn3ccccc23)ccc1=O (relative stereo)	238 to 240 °C
COC(=O)C1=C(C)NC(=O)N(C(=O)OC)C1c1cccc(N)c1 (stereo unspecified)	190 to 193 °C
CCCCCCCCCCCCCCCCCCS(=O)(=O)c1cc2ccccc2c(N)c1O	84 to 88 °C
O=C(NCC12CC3CC(CC(C3)C1)C2)c1cccc(F)c1Cl	149 to 151 °C

SMILES	melting point
CCS(=O)(=O)CCOc1cc(CCCOc2nn(Cc3ccccc3)cc2CC(=O)O)n(Cc2ccc(Cl)cc2Cl)n1	100 to 101 °C
C[C@]1(COc2ccc(N3CCC(OCC=Cc4ccc(OC(F)(F)F)cc4)CC3)cc2)Cn2cc([N+](=O)[O-])nc2O1	214 to 217 °C
CC(C)n1nc(-c2c(Nc3ccccc3)nc(N)nc2-c2ccc(F)cc2)ccc1=O	> 250 °C
CC(=O)Nn1c(C)nc2cc(C(F)(F)F)ccc21	214 to 216 °C
CCCCCCCC/C=C\CCCCCCCCOc1cccc(N(CC(=O)OC)CC(=O)OC)c1	36 to 37 °C
O=[N+]([O-])c1ccc(C(Nc2ccccc2)P(=O)(Oc2ccccc2)Oc2ccccc2)cc1 (stereo unspecified)	158 to 160 °C
CN(O)C(=O)Nc1ccc(S(C)=O)cc1 (stereo unspecified)	198 °C
N#Cc1cc(-c2ccccc2F)[nH]c1Cl	218 to 220 °C
CN1CCC(c2c[nH]c3ccc(-c4cccs4)cc23)C1 (stereo unspecified)	166 to 168 °C
Cc1oc(-c2ccccc2)nc1COc1ccc2c(c1)CCC(C=O)=C2	114 to 115 °C
O=Cc1c(OCc2ccccc2)ccc2ccccc12	120 to 121 °C
N#Cc1cccc(-c2ccc3c(Cl)cnc(NC(=N)N)c3c2)c1	> 300 °C
CCN(CCc1ccc(Nc2ncc3c(n2)-c2ccccc2C(c2cccc(Br)c2)C3)cc1)C(C)C (stereo unspecified)	67 to 69 °C
O=C(c1ccc(Cl)cc1)c1c(N2C(=O)c3ccccc3C2=O)sc(-c2ccccc2)c1CN1CCCCC1	187 to 189 °C
CC1=C(C(=O)CS(=O)(=O)NC(C)C)[C@@H](c2cccc([N+](=O)[O-])c2)C(C(=O)O[C@@H](C)c2ccccc2)=C(C)N1	128 to 131 °C
CC(=O)OC1CSC(Oc2cncc(-c3cccnc3F)c2)C(OC(C)=O)C1OC(C)=O (stereo unspecified)	169 to 170 °C
NS(=O)(=O)c1cc(C(O)CN(Cc2ccccc2)Cc2ccccc2)ccc1N1CCCCC1 (stereo unspecified)	133 to 142 °C
CCCCc1nn(-c2ccc([N+](=O)[O-])cc2C(F)(F)F)c(=O)[nH]1	126 to 128 °C
CC(C)Cc1cc(-c2cccc(C=O)c2)c(S(=O)(=O)NC(C)(C)C)s1	96 to 98 °C
O=C1NCC(c2ccsc2)SCC1N1C(=O)c2ccccc2C1=O (stereo unspecified)	243 to 245 °C
O=C1C[C@@H](O)C[C@H](CCc2c(Cl)cc(Cl)cc2OCc2ccc(F)cc2)O1	133 to 135 °C
CCCCCC1CCC(CCc2ccc(-c3ncc(O)cn3)c(F)c2F)CC1 (stereo unspecified)	157 °C
CN(C)c1ccc(C=O)c([N+](=O)[O-])c1	115 to 116 °C
CC1C(=O)Oc2cc(N3CCCCCC3)ccc21 (stereo unspecified)	57 to 59 °C
COc1ccc(OC)c(C2CC=CCC2[N+](=O)[O-])c1 (stereo unspecified)	73 to 75 °C
COC(=O)C1=NNC(C)=C(C(=O)OC)C1c1ccc(OC)cc1 (stereo unspecified)	154 °C

SMILES	melting point
CCCCCCCc1ccc(NC2=NCCS2)cc1	81 to 82 °C
CNC(=S)N1Cc2ccccc2C2(Cc3ccccc3O2)C1 (stereo unspecified)	165 °C
Cc1nc(N2CCCC2=O)sc1C(=O)NCc1ccccc1	222 to 224 °C
COc1ccnc(N2CCN(C(=O)c3ccsc3)CC2)n1	90 to 92 °C
CCOC(=O)C1=C(C)Nc2ccnc(OC(C)C)c2C1c1cccc2nonc12 (stereo unspecified)	134 to 136 °C
N#Cc1ccc(-c2ccccc2F)c(F)c1	78 to 79 °C
O=[N+]([O-])C=C1NCCCCN1	152 to 154 °C
Clc1ccc(C=NN=c2ccn(-c3ccc(Cl)cc3)cc2)cc1	165 to 166 °C
N=C(NO)c1cccc2c1nc(-c1c(F)cccc1F)n2Cc1c(F)cccc1F	214 to 216 °C
CN(C)c1nc(-c2ccccc2O)cs1	201 to 204 °C
CCOC(=O)c1c(N2CCN(C(=O)c3cccs3)CC2)c2cc(Cl)cnc2n(Cc2cccc(F)c2)c1=O	186 °C
COc1ccc(-c2ccc(COc3cc4c(cc3CCN(CCCCC(=O)O)Cc3ccc(C(=O)O)cc3)CCCC4)cc2)cc1	> 240 °C
CSc1ccc(-n2c(-c3ccc(C)cc3)nc(SC)c(C#N)c2=O)cc1	230 to 233 °C
O=c1ccc(-c2ccc([N+](=O)[O-])c(C(F)(F)F)c2)n[nH]1	238 to 241 °C
CCOC(=O)N1CCN(C(=O)Cn2c(-c3ccc(Cl)cc3)nc3cccnc32)CC1	184 to 186 °C
O=C(O)CCCc1ccc(-c2ccc(Cl)cc2)cc1	187 to 190 °C
O=C(NC1=NCCCC1)Nc1ccccc1	153 to 154 °C
CC(C)Cn1c(CONS(C)(=O)=O)nc2c(N)nc3ccccc3c21	215 to 216 °C
CCc1cnc2c(NC(=O)c3c(Cl)cccc3Cl)cccc2c1CC(=O)NCc1ccccn1	162 to 163 °C
CCCOc1nc2cc(Cn3ccnc3)ccc2nc1C	85.5 °C
COc1cc(-c2ccc(C#N)cc2)c2nc(-c3ccc(OC)c(F)c3)cc(O)c2c1	248 to 250 °C
CCCCCCCCCCCCN=C=S	75 to 80 °C
COC(=O)c1ccccc1-c1noc(-c2cccc(C(F)(F)F)c2)n1	84.5 to 86.5 °C
COc1ccc(N(CCC(=O)NCC(=O)O)C(=O)c2ccc(Cl)cc2)cc1	185 to 187 °C
COC(=O)c1cc(CCl)ccc1OCc1nc(-c2ccco2)oc1C	107 to 108 °C
Cc1cnc(Cl)c(C(=O)N(C)C)c1	117 to 119 °C

SMILES	melting point
CCc1nc2c(N)nc3cc(Oc4ccc(C(=O)OC)cn4)ccc3c2s1	213 to 214 °C
CC(C)n1nc(-c2cc(C(=O)NCc3ccccc3)cnc2-c2ccccc2)ccc1=O	205 to 206 °C
Cc1c(O)cccc1C(=O)N[C@@H](Cc1ccccc1)[C@H](O)C(=O)N1CSC(C)(C)[C@H]1C(=O)N[C@H]1C=CCCC1	193 to 195 °C
CC(C)(C)Oc1ccc2cc(C=O)ccc2c1	51 to 52 °C
COc1ccc2c(=O)cc[nH]c2c1O	228 to 230 °C
Nc1nc(S(N)(=O)=O)c2[nH]cnc2n1	> 250 °C
COP(=O)(Cc1ccc2ccc(CP(=O)(OC)OC)cc2c1)OC	87 to 88 °C
NC(Cc1c[nH]c2c(F)cccc12)C(=O)O (stereo unspecified)	256 to 261 °C
CCOc1ccc2c(c1)n(C(C)(C)CC(C)(C)C)c(=O)n2S(=O)(=O)c1ccc([N+](=O)[O-])cc1OC	158 °C
CCOC(=O)Cc1c(C)nn(-c2ccc(OC)cc2)c1C	71 to 72 °C
O=C(Nc1ccc(Cl)cc1)O[C@@H]1CN=C(c2ccccc2)O[C@H]1c1ccccc1 (racemic)	124 °C
OCCNC(=S)NC(Cc1cccc2ccccc12)=Nc1ccccc1	155 to 156 °C
Cc1nc(-c2c(F)cccc2F)nn1-c1ccccc1C(F)(F)F	80 to 82 °C
CC(CN1CC=C(c2ccc(Cl)cc2)CC1)C(O)c1ccccc1 (stereo unspecified)	103 to 105 °C
COc1cc([N+](=O)[O-])c2nccc(C)c2c1OCCCCCCCCCc1ccccc1	56 to 56.5 °C
Cc1c(-c2ccccc2)oc2c(OCCCCCBr)cccc2c1=O	75 to 76 °C
COC(=O)Cc1cccc(OC)c1OCCCc1cc(O)nn1Cc1ccc(Cl)cc1Cl	110 to 111 °C
O=C(NCc1ccc(Cl)cc1)c1nnc2ccc(CO)cc2c1O	296 to 298 °C
CCCN(CC(=O)Nc1c(OC)nc(C)nc1OC)c1ccccc1	173 to 174 °C
CN(C)CCOC(=O)c1cccc2cc(-c3ccccc3)oc12	56.5 to 58 °C
CC1CC(=O)c2c(nc3c(c2N)c2ccccc2n3C)C1 (stereo unspecified)	216 to 217 °C
Cc1nc2ccccc2c(N)c1C(C)O (stereo unspecified)	214 °C
O=C(O)CC1CCCCCCCCCCC1=O (stereo unspecified)	124 °C
